From patent US10004761B2, “Malodor neutralizing composition” (priority 2016, dated 2018)

Columns and labels:
[1] = tested on: hyaluronidase Type IV-S, from bovine testes (Hyase); experiment: Dische's assay (Method II) of HA degradation by Hyase with inhibitors; format: biochemical; conditions: for % HA degraded: 20 μL inhibitor stock incubated 2 h with 20 μL Hyase, then HA 200 μL; for % HA degraded / % HA intact (precipitated): room temperature 24 h; for % of inhibition of HA degradation: derived from Table 1; for % HA intact (precipitated): represents % of Hyase inhibition, 20 μL inhibitor, 20 μL Hyase, HA 200 μL
Experimental: Method II (Dische's assay; detection of uronic acid residues): Assays were performed by following the procedures described in Dische Z. [J. Biol. Chem., 1947, 167, p. 189-198] and Dische and Rothschild [Anal Biochem., 1967, 21(1), p. 125-30]. In these assays, molecules containing the uronic acid residues found in the precipitate formed upon CPC additions, are re-solubilized and products formed by -sulfuric acid hydrolysis of these fragments are detected by a spectrophotometric assay employing carbazole chromagen reagent. In addition, small residues degraded off the HA chains that have not precipitated with the addition of CPC, can be detected by the carbazole assay performed on the solution, so as to detect all of the uronic acid content.
Evaluation of HA degradation by this method was generally performed as follows:
20 μL of a NAC stock solution, and 20 μL of the stock solutions of the other inhibitors were used in the assay.
200 μL of the HA stock solution were placed in each tube, for achieving a 1 mg HA per tube.
Twenty (20) μL of hyase and 20 μL of NAC were combined and incubated for 2 hours. Then 200 μL of HA (1 mg) were added to each tube and the mixture was incubated at room temperature for 24 hours. Thereafter, the tubes were heated for 2 minutes in boiling water bath and 8 mL of doubled distilled water were added to the tubes as preparation for the Dische's assay.
As per Dische's Assay, 100 μL of 3N NaCl and 0.5 mL of 10% CPC (cetylpyridinium chloride) were thereafter added to each tube and the mixture was incubated at 37° C. until flocculation-turbidity (resulting from precipitation of HA+CPC) could be observed. The mixture was centrifuged for 10 minutes at 10,000 g at room temperature, and the supernatant was thereafter separated from the obtained pellet.
The pellet was dissolved in 1 ml of CaCl2, and the obtained solution was incubated at 37° C. until complete dissolution of the pellet is obtained. A 2:1 v/v ethanol/ether mixture (8 ml) was thereafter added, and the mixture was intensively stirred (by vortex) and kept at −20° C. overnight. The obtained pellet was collected following a centrifugation for 10 minutes at 10,000 g. Then, distilled water (1 mL) was added to solubilize the pellet, followed by addition of 0.2 ml Carbazole 1%. The mixture was stirred thoroughly, and concentrated sulfuric acid (6 mL) was thereafter added.
The samples were transferred into tight closed tubes, placed for 10 minutes in a boiling water bath, and was thereafter cooled in ice until it reached room temperature.
The pink-violet color developed by the chromogen was measured using a spectrophotometer at 527 nm.
Ditch assay, as described hereinabove (Method II) was performed while using the following Hyase inhibitors:
The experiment was run at room temperature (23° C.). Hyase and Inhibitors were incubated first for 2 hours prior to the addition of HA. Blank tubes included no substrate (HA) and Control tubes included no enzyme, no inhibitor and HA (200 μL). Tubes 5 and 6 contained HA and Hyase with no inhibitor. Standard Solutions with no enzyme and no inhibitor and HA 50 μL and 10 μL were also tested, for calibration. % HA cleaved denotes the weight percent of HA that was degraded. % HA residue denotes the weight percent of non-degraded HA, and represents the % of Hyase inhibition.

[2] = HA gelation consistency (Method III) with inhibitors, no Hyase; format: physicochemical; conditions: for Consistency: Table 8: HA 1% 2cc + 20 μL inhibitor stock
Experimental: Method III (Viscosity of HA): HA at low concentrations (e.g., 1%) in aqueous solution forms a viscous colloidal hydrogel solution, which yields semi-solid gel particles at room temperature and a solid gel at 4° C.
HA degradation was evaluated using Method III, as described hereinabove.
HA Gelation in the presence of Hyase Inhibitors, without Hyase was studied while using the following Stock solutions:
To each tube containing 2 mL of 1% HA one of the following inhibitors: SCG, Tranilast, and Glutathione (100 μL of each), and NAC (50 μL) was added. […] No Hyase was present.
Using the same protocols as above, HA degradation was tested following incubation of HA (2 ml of a 1% Stock solution) and a Hyase inhibitor (20 μL of a stock solution as described hereinabove), at 37° C., in the presence and absence of Hyase.

[3] = TMA malodor neutralization by myrac aldehyde, evaluated by smelling
Experimental: The experimental system for following the neutralization of an exemplary malodorous compound trimethylamine (TMA) by an exemplary malodor neutralizing agent aldehyde myrac aldehyde, was based on assaying the CHO functional group using the Park-Johnson method [Park, J. T. and Johnson, M. J., J. Biol. Chem., 1949, 181, p. 149]. TMA levels were analyzed using Siemens Multistix 10 SG reagent strips.
Determination of the concentration of myrac aldehyde needed to neutralize TMA malodor was evaluated by smelling 2 ml samples of an aqueous solution containing 2 mM TMA (4 micromole of TMA in 2 ml of water). […]

% HA degraded [1] [%] | % of inhibition of HA degradation [1] [%] | % HA intact (precipitated) [1] [%] | HA gel consistency ([2]; 2 mL 1% HA + inhibitor stock (100 μL; NAC 50 μL), 37° C. 24 hours) | SMILES | Consistency ([2]; at 4° C.) | Consistency ([2]; at 37° C.) | concentration from which the scent of myrac aldehyde is perceived and masks the smell of TMA ([3]; 2 mM TMA in water) [%] | concentration of myrac aldehyde that can neutralize the smell of TMA ([3]; 2 mM TMA in water) | Perceived scent ([3]; Sample 1: 2 μl aldehyde in 2 ml TMA 2 mM solution, 0.1 percent aldehyde) | Perceived scent ([3]; Sample 2: 10 μl aldehyde in 2 ml TMA 2 mM solution, 0.5 percent aldehyde) | Perceived scent ([3]; Sample 3: 20 μl aldehyde in 2 ml TMA 2 mM solution, 1 percent aldehyde) | Perceived scent ([3]; Sample 4: 40 μl aldehyde in 2 ml TMA 2 mM solution, 2 percent aldehyde) | Perceived scent ([3]; Sample 5: 80 μl aldehyde in 2 ml TMA 2 mM solution, 4 percent aldehyde) | Perceived scent ([3]; Sample 6: 100 μl aldehyde in 2 ml TMA 2 mM solution, 5 percent aldehyde) | Perceived scent ([3]; Sample 7: 200 μl aldehyde in 2 ml TMA 2 mM solution, 10 percent aldehyde) | Perceived scent ([3]; Sample 8: 300 μl aldehyde in 2 ml TMA 2 mM solution, 15 percent aldehyde) | Perceived scent ([3]; Sample 9: 400 μl aldehyde in 2 ml TMA 2 mM solution, 20 percent aldehyde)
82 | 18 | 18 | viscous liquid | N[C@@H](CCC(=O)N[C@@H](CS)C(=O)NCC(=O)O)C(=O)O [Glutathione, Reduced Glutathione] | Solid (for a solid the results were in the range of 80-100 Pa S and higher) | Viscous liquid (for a viscous liquid in the range of 1-10 Pa S) |  |  |  |  |  |  |  |  |  |  | 
96.7 | 3.3 | 3.3 |  | O=C(O)c1cc(=O)c2c(OCC(O)COc3cccc4oc(C(=O)O)cc(=O)c34)cccc2o1 [Cromoglycate, sodium Cromoglycate] | Solid (for a solid the results were in the range of 80-100 Pa S and higher) | Semisolid (for a semi-solid in the range of 50-70 Pa S) |  |  |  |  |  |  |  |  |  |  | 
 |  |  |  | CC(C)=CCCC1=CCC(C=O)CC1 (stereo not shown) [myrac aldehyde, 4-(4-methylpent-3-enyl)cyclohex-3-ene-1-carbaldehyde] |  |  | ≥ 4 | about 2% | Strong fishy | fishy | Faint fishy | No scent | Faint myrac | Myrac | Myrac | Strong Myrac | Strong myrac
